Source: patent publication US6362166B1, “Antipicornaviral compounds and methods for their use and preparation” (Agouron Pharmaceuticals, Inc., priority 1996, dated 2002)
Read-outs that look alike come from different tables or passages of the source.

Key:
[1] = Cytotoxicity in mock-infected HI-HeLa cells (antirhinoviral assay, XTT); format: cell-based; settings: human; mock-infected HI-HeLa cells; two days; XTT; read-out: CC50
[2] = molecular target: T1, Recombinant Rhinovirus 3C protease (RVP) serotype 16 (Human rhinovirus 16, UniProt Q82122); experiment: Inhibition of Rhinovirus Protease (fluorescence resonance energy transfer assay), serotype 16; format: biochemical, human rhinovirus (HRV); settings: RVP serotype 16, progress curves in enzyme start experiments; for kinact/KI: pH 7.6, read-out: kobs/I
T1 construct: Recombinant Rhinovirus 3C proteases from serotypes 14, 16, 2 or 89; made in house
T1 sequence (Q82122 1511-1693): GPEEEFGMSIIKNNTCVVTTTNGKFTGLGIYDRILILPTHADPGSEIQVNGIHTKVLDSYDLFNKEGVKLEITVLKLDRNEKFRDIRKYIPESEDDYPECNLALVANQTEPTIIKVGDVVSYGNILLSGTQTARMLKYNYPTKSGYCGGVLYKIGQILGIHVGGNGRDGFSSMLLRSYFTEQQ
Protocol: (§1) Stock solution (50 mM, in DMSO) of various compounds were prepared; dilutions were in the same solvent. Recombinant Rhinovirus 3C proteases from serotypes 14, 16, 2 or 89 were prepared by the following standard chromatographic procedures: (1) ion exchange using Q Sepharose Fast Flow from Pharmacia; (2) affinity chromatography using Affi-Gel Blue from Biorad; and (3) sizing using Sephadex G-100 from Pharmacia. Assays contained 2% DMSO, 50 mM tris pH 7.6, 1 mM EDTA, a compound at the indicated concentrations, approximately 1 μM substrate, and 50-100 nM protease. […] The kobs/I values were obtained from reactions initiated by addition of enzyme rather than substrate. RVP activity is measured in the fluorescence resonance energy transfer assay. The substrate was (N-terminal) DABCYL-([…]Gyl)-EDANS. In the uncleaved peptide, the EDANS fluorescence was quenched by the proximal DABCYL moeity. When the peptide was cleaved, the quenching was relieved, and activity was measured as an increase in fluorescence signal.
(§2) In the above table, all data is RVP serotype-14 unless otherwise noted in parentheses. All strains of human rhinovirus (HRV) were purchased from American Type Culture Collection (ATCC), except for serotype 14, which was produced from the infectious cDNA clone constructed and supplied to us by Dr. Roland Rueckert at the Institute for Molecular Virology, University of Wisconsin, Madison, Wisc. […] The data in the column designated kobs/I was measured from progress curves in enzyme start experiments.

[3] = molecular target: T2, Recombinant Rhinovirus 3C protease (RVP) serotype-14 (Human rhinovirus 14, UniProt P03303); experiment: Inhibition of Rhinovirus Protease (fluorescence resonance energy transfer assay), serotype 14; format: biochemical, human rhinovirus (HRV); settings: for kinact/KI: pH 7.6, read-out: kobs/I; for kobs/I: progress curves in enzyme start experiments
T2 construct: Recombinant Rhinovirus 3C proteases from serotypes 14, 16, 2 or 89; made in house
T2 sequence (P03303 1538-1719): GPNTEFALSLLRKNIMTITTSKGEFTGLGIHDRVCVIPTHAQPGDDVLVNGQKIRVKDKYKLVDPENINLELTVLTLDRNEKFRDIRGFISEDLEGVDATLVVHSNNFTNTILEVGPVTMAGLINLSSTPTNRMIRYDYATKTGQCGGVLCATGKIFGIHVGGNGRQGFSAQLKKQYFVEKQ

[4] = molecular target: T3, Recombinant Rhinovirus 3C protease (RVP) serotype 2 (Human rhinovirus 2, UniProt P04936); experiment: Inhibition of Rhinovirus Protease (fluorescence resonance energy transfer assay), serotype 2; format: biochemical, human rhinovirus (HRV); settings: for kinact/KI: pH 7.6, progress curves in enzyme start experiments, read-out: kobs/I; for kobs/I: progress curves in enzyme start experiments
T3 construct: Recombinant Rhinovirus 3C proteases from serotypes 14, 16, 2 or 89; made in house
T3 sequence (P04936 1508-1690): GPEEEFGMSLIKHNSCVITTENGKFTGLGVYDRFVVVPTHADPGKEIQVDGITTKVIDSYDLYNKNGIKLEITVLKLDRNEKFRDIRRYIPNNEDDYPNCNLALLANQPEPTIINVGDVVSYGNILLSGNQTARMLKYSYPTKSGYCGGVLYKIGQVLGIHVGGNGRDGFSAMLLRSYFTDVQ
Protocol: as §1, §2

[5] = test system: HRV-14; experiment: Antirhinoviral HI-HeLa Cell Culture Assay (Cell Protection Assay, XTT dye reduction); format: cell-based, human rhinovirus (HRV) serotype-14
How it was run: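 HI-HeLa cells infected with HRV-14 at m.o.i. 0.13 or mock-infected, then incubated with compounds for two days. Cell protection read by XTT/PMS formazan at 450/650 nm; therapeutic index = CC50/EC50.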

[6] = test system: HI-HeLa cells; experiment: Cytotoxicity in mock-infected HI-HeLa cells (antirhinoviral assay, XTT); format: cell-based
[7] = Rhinovirus B, HRV14, 48 h, HI-HeLa cells infected with HRV-14, m.o.i. 0.13, two days, XTT, read-out: EC50
[8] = HI-HeLa cells infected with HRV-14, m.o.i. 0.13, two days, XTT, read-out: EC50
[9] = mock-infected HI-HeLa cells, two days, XTT, read-out: CC50

| SMILES | CC50 at 2 days [1] | kinact/KI [2] | Ki [3] | kinact/KI [3] | kinact/KI [4] | EC50 [5, 7] | CC50 [6] | kobs/I [2] | kobs/I ([3]; RVP serotype-14) | kobs/I [4] | EC50 [5, 8] | EC50 ([5]; Rhinovirus B, HRV14, 48 h) | CC50 [6, 9] | Ki ([3]; RVP serotype-14, 10 minute preincubation, substrate start, read-out: INHIB (Ki)) |
| --- | --- | --- | --- | --- | --- | --- | --- | --- | --- | --- | --- | --- | --- | --- |
| CCOC(=O)/C=C/[C@H](CCC(N)=O)NC(=O)[C@H](Cc1ccccc1)NC(=O)[C@H](Cc1ccccc1)NC(=O)OCc1ccccc1 [Compound 157] | > 320 µM | 30800 M⁻¹ s⁻¹ | 6 µM | 162000 M⁻¹ s⁻¹ | 9700 M⁻¹ s⁻¹ | 0.56 µM |  |  |  |  |  |  |  |  |
| CCOC(=O)/C=C/[C@H](CCC(N)=O)NC(=O)[C@H](Cc1ccccc1)NC(=O)[C@H](CC(=O)O)NC(=O)OCc1ccccc1 [Compound 159] | > 320 µM | 6500 M⁻¹ s⁻¹ | 0.5 µM | 35000 M⁻¹ s⁻¹ | 2500 M⁻¹ s⁻¹ | 2.4 µM |  |  |  |  |  |  |  |  |
| CCOC(=O)/C=C/[C@H](CCC(N)=O)NC(=O)[C@H](Cc1ccccc1)NC(=O)[C@H](CCC(=O)O)NC(=O)OCc1ccccc1 [Compound 154] | > 320 µM | 13900 M⁻¹ s⁻¹ | 1.1 µM | 78900 M⁻¹ s⁻¹ | 5400 M⁻¹ s⁻¹ | 5.5 µM |  |  |  |  |  |  |  |  |
| CCOC(=O)/C=C/[C@H](CCC(N)=O)NC(=O)[C@H](Cc1ccccc1)NC(=O)[C@H](CC(C)C)NC(=O)SCc1ccccc1 [Compound 106] | > 320 µM | 75000 M⁻¹ s⁻¹ | 2 µM | 280000 M⁻¹ s⁻¹ | 28400 M⁻¹ s⁻¹ | 0.27 µM |  |  |  |  |  |  |  |  |
| CCOC(=O)/C(C)=C/[C@H](CCC(N)=O)NC(=O)[C@H](Cc1ccccc1)NC(=O)[C@H](CC(C)C)NC(=O)SC(C)C [Compound 171] |  |  |  |  |  |  | > 100 µM | 3,250 M-1 sec-1 | 21,200 M-1 sec-1 | 830 M⁻¹ s⁻¹ | 0.71 µM |  |  |  |
| CCOC(=O)C=CC(CCC(N)=O)NC(=O)C(Cc1ccc(C)cc1)NC(=O)C(CC(C)C)NC(=O)OCc1ccccc1 (centres unmarked) [Compound 155] | > 320 µM | 5250 M⁻¹ s⁻¹ |  | 59400 M⁻¹ s⁻¹ | 1390 M⁻¹ s⁻¹ |  |  |  |  |  |  | 0.18 µM |  |  |
| CCOC(=O)/C=C/[C@H](CCC(N)=O)NC(=O)[C@H](Cc1ccccc1)NC(=O)[C@H](CO)NC(=O)OCc1ccccc1 [Compound 149] |  |  |  |  |  |  | > 320 µM | 7,700 M-1 sec-1 | 39,940 M-1 sec-1 | 2,840 M-1 sec-1 | 1.78 µM |  |  |  |
| CCOC(=O)/C=C/[C@H](CCC(N)=O)NC(=O)[C@H](Cc1ccccc1)NC(=O)[C@H](CSc1ccccc1)NC(=O)OCc1ccccc1 [Compound 153] | > 320 µM | 30600 M⁻¹ s⁻¹ | 1.4 µM | 141000 M⁻¹ s⁻¹ | 13400 M⁻¹ s⁻¹ | 0.12 µM |  |  |  |  |  |  |  |  |
| CCOC(=O)/C=C/[C@H](CCC(N)=O)NC(=O)[C@H](Cc1ccccc1)NC(=O)[C@@H](NC(=O)SCC)C(C)(C)C [Compound 167, Ethyl-3-[Ethylthiocarbonyl-L-α-(t-Butyl-Gly)-L-Phe-L-Gln]-E-Propenoate] |  |  |  |  |  |  | > 100 µM | 42,100 M-1 sec-1 | 165,400 M-1 sec-1 | 10,700 M-1 sec-1 | 0.083 µM |  |  |  |
| CCOC(=O)/C=C/[C@H](CCC(N)=O)NC(=O)[C@H](Cc1ccccc1)NC(=O)[C@H](CC(C)C)NC(=O)SCC [Compound 120] | > 320 µM | 20000 M⁻¹ s⁻¹ | 6 µM | 91300 M⁻¹ s⁻¹ | 8900 M⁻¹ s⁻¹ | 0.46 µM |  |  |  |  |  |  |  |  |
| CCOC(=O)/C=C/[C@H](CCC(N)=O)NC(=O)[C@H](Cc1ccccc1)NC(=O)[C@H](CSCc1ccccc1)NC(=O)OCc1ccccc1 [Compound 165] |  |  |  |  |  |  | > 100 µM | 20,200 M-1 sec-1 | 97,000 M-1 sec-1 | 5,600 M-1 sec-1 | 0.2 µM |  |  |  |
| CCOC(=O)/C=C/[C@H](CCC(N)=O)NC(=O)[C@H](Cc1ccccc1)NC(=O)[C@H](CC(C)C)NC(=O)SC(C)C [Compound 170] |  |  |  |  |  |  | > 100 µM | 30,000 M-1 sec-1 | 85,300 M-1 sec-1 | 8,400 M-1 sec-1 | 0.2 µM |  |  |  |
| CCOC(=O)C=CC(CCC(N)=O)NC(=O)C(Cc1ccccc1)NC(=O)C(CCc1ccccc1)NC(=O)OCc1ccccc1 (centres unmarked) [Compound 148] | > 320 µM | 14800 M⁻¹ s⁻¹ |  | 57000 M⁻¹ s⁻¹ | 8300 M⁻¹ s⁻¹ | 0.25 µM |  |  |  |  |  |  |  |  |
| CCOC(=O)/C=C/[C@H](CCC(N)=O)NC(=O)[C@H](Cc1ccccc1)NC(=O)[C@H](C[S+]([O-])Cc1ccccc1)NC(=O)OCc1ccccc1 (some centres unmarked) [Compound 166] |  |  |  |  |  |  | > 100 µM | 7,700 M-1 sec-1 | 40,900 M-1 sec-1 | 3,500 M-1 sec-1 | 5.6 µM |  |  |  |
| CCOC(=O)/C=C/[C@H](CCC(N)=O)NC(=O)[C@H](Cc1ccccc1)NC(=O)[C@H](CSc1ccccc1)NC(=O)SC1CCCC1 [Compound 173, Ethyl-3-[Cyclopentylthiocarbonyl-L-(S-Ph-Cys)-L-Phe-L-Gln]-E-Propenoate] |  |  |  |  |  |  | > 100 µM | 185,000 M-1 sec-1 | 1,000,000 M-1 sec-1 | 113,000 M-1 sec-1 | 0.08 µM |  |  |  |
| CCOC(=O)/C=C/[C@H](CCC(N)=O)NC(=O)[C@H](Cc1ccccc1)NC(=O)[C@@H](NC(=O)OCc1ccccc1)C(C)C [Compound 146] |  |  |  |  |  |  | > 320 µM | 16,900 M-1 sec-1 | 62,500 M-1 sec-1 | 7,790 M-1 sec-1 | 0.38 µM |  |  |  |
| CCOC(=O)/C=C/[C@H](CCC(N)=O)NC(=O)[C@H](CC1CCCCC1)NC(=O)[C@H](CC(C)C)NC(=O)OCc1ccccc1 [Compound 135] |  |  |  |  |  |  |  | 3,465 M-1 sec-1 | 16,270 M-1 sec-1 | 671 M⁻¹ s⁻¹ | 1.9 µM |  | > 320 µM |  |
| CCOC(=O)/C=C/[C@H](CCC(N)=O)NC(=O)[C@H](Cc1ccccc1)NC(=O)[C@H](Cc1ccccc1)NC(=O)SCc1ccccc1 [Compound 161] |  |  |  |  |  |  | > 100 µM | 126,000 M-1 sec-1 | 1,086,000 M-1 sec-1 | 200,000 M-1 sec-1 | 0.17 µM |  |  |  |
| CCOC(=O)/C=C/[C@H](CCC(N)=O)NC(=O)[C@H](Cc1ccc(F)cc1)NC(=O)[C@H](CC(C)C)NC(=O)OCc1ccccc1 [Compound 35, Ethyl-3-[CBZ-L-Leu-L-(4-F-Phe)-L-Gln]-E-Propenoate] |  |  |  |  |  |  |  | 9,177 M-1 sec-1 | 46,388 M-1 sec-1 | 2,357 M-1 sec-1 | 1.8 µM |  | > 320 µM | 16.5 µM |
| CCOC(=O)/C=C/[C@H](CCC(N)=O)NC(=O)[C@H](Cc1ccc(CCO)cc1)NC(=O)[C@H](CC(C)C)NC(=O)OCc1ccccc1 [Compound 139] |  |  |  |  |  |  | > 320 µM | 1,259 M-1 sec-1 | 43,140 M-1 sec-1 | 691 M⁻¹ s⁻¹ | 3.5 µM |  |  |  |
